For this assay, the target named is T1, human serum albumin (Homo sapiens, UniProt P02768).
T1 construct: gene ALB
Nature of the assay: intrinsic Trp fluorescence quenching (excitation […] nm, […] K), double-log plot; Kb is an association constant. The format is binding. The conditions noted are these: read-out: Kb/dm^3 mol^-1 (converted).

T1 sequence (P02768 25-609): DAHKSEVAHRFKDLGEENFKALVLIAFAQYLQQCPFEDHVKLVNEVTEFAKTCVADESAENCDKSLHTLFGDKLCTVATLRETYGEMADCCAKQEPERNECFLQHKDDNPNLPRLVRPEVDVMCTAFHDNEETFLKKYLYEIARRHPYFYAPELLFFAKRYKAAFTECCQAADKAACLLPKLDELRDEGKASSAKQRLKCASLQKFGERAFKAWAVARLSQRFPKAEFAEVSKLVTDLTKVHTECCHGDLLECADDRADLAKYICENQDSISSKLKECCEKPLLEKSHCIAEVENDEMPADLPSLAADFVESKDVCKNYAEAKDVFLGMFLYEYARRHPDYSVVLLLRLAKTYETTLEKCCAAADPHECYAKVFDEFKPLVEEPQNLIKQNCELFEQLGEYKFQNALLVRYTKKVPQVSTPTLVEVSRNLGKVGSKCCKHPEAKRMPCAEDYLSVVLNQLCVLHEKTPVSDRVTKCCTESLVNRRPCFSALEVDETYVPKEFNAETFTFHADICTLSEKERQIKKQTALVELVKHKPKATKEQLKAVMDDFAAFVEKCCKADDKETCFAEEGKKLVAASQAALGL

Take `O=C(CCCN1CCC(O)(c2ccc(Cl)cc2)CC1)c1ccc(F)cc1` [HPD, haloperidol]: the Kd was 225 µM.
